# Experimental data: ChEMBL document CHEMBL6153138, “Discovery of Novel Aromatic Urea-Imidazole Salt Derivatives for Cancer Therapy via Targeting ERK1/2” (J Med Chem, 2025)
# Calls of active or inactive are those of the source. No cut-off for these calls is given here.
# What was measured:
# 4T1 [1] = assay: Antiproliferative activity against mouse 4T1 cells incubated for 48 hrs by CCK-8 method; type: functional, cell-based; details: 4T1, 48 h
# [2] = Cmax in Sprague-Dawley rat at 1 mg/kg, iv by LC-MS/MS analysis; type: ADME, organism-based; details: in vivo
# [3] = AUC (0 to t) in Sprague-Dawley rat at 1 mg/kg, iv by LC-MS/MS analysis; type: ADME, organism-based; details: in vivo
# [4] = Cmax in Sprague-Dawley rat at 10 mg/kg, po by LC-MS/MS analysis; type: ADME, organism-based; details: in vivo
# [5] = AUC (0 to infinity) in Sprague-Dawley rat at 10 mg/kg, po by LC-MS/MS analysis; type: ADME, organism-based; details: in vivo
# [6] = Oral availability in Sprague-Dawley rat at 10 mg/kg by LC-MS/MS analysis; type: ADME, organism-based; details: in vivo
# [7] = molecular target: T1, Mitogen-activated protein kinase; ERK1/ERK2 (Homo sapiens) (UniProt P27361+P28482); assay: Induction of thermal stabilization of ERK1/2 in human MCF7 cells at 10 uM incubated for 3 hrs at 65 to 75 degree C by […] method; type: cell-based
# T1 sequence (P27361 whole entry, looked up): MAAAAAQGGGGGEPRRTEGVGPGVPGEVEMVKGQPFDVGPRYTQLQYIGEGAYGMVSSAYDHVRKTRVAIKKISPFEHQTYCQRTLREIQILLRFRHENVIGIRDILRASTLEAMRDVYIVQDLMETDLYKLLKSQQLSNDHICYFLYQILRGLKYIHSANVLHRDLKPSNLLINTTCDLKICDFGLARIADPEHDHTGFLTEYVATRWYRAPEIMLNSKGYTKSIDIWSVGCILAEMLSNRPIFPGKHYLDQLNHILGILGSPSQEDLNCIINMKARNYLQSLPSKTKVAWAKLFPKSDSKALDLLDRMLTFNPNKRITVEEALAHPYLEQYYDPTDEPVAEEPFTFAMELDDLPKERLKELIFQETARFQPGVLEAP
# T1 sequence (P28482 whole entry, looked up): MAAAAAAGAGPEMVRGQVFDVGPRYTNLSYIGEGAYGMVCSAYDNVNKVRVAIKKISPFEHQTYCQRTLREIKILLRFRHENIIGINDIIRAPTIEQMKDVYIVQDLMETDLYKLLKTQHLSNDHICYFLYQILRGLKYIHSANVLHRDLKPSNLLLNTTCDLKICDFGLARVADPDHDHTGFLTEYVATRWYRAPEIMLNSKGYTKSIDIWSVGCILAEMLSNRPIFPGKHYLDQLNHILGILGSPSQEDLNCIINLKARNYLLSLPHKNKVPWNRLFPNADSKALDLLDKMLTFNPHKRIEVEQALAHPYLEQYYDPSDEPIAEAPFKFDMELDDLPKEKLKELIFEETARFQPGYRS
# [8] = molecular target: Mitogen-activated protein kinase 3 (Homo sapiens, UniProt P27361); assay: Induction of thermal stabilization of ERK1 (unknown origin) at 10 uM by differential scanning fluorimetry analysis
# Chain of Mitogen-activated protein kinase 3 (P27361 whole entry): as the sequence (P27361 whole entry, looked up) above
# [9] = molecular target: T1, Mitogen-activated protein kinase; ERK1/ERK2 (Homo sapiens); assay: Binding affinity to ERK1/2 in human MCF7 cells assessed as protection of pronase-mediated protein degradation at 1 to 100 uM pre-incubated with compound for 1 hr followed by pronase digestion for 15 mins by DARTS analysis; type: cell-based; details: dose 1-100 µM, time 75.0 min
# MCF7 [10] = assay: Downregulation of p90RSK phosphorylation expression in human MCF7 cells at 0.5 to 2 uM measured after 30 mins to 4 hrs by Western blot analysis; type: functional, cell-based; details: dose 0.5-2 µM, time 30-240 min
# MCF7 [11] = assay: Effect on MEK1/2 phosphorylation expression in human MCF7 cells at 0.5 to 2 uM measured after 30 mins to 4 hrs by Western blot analysis; type: functional, cell-based; details: dose 0.5-2 µM, time 30-240 min
# MCF7 [12] = assay: Effect on MEK1/2 expression in human MCF7 cells at 0.5 to 2 uM measured after 30 mins to 4 hrs by Western blot analysis; type: functional, cell-based; details: dose 0.5-2 µM, time 30-240 min
# MCF7 [13] = assay: Antiproliferative activity against human MCF7 cells harbouring ERK1 knockout incubated for 48 hrs by CCK-8 method; type: functional, cell-based
# [14] = molecular target: Non-receptor tyrosine-protein kinase TYK2 (Homo sapiens) (UniProt P29597); assay: Inhibition of human TYK2 at 10000 nM by DiscoverX KINOMEscan assay relative to control
# Chain of Non-receptor tyrosine-protein kinase TYK2 (Homo sapiens) (P29597 whole entry): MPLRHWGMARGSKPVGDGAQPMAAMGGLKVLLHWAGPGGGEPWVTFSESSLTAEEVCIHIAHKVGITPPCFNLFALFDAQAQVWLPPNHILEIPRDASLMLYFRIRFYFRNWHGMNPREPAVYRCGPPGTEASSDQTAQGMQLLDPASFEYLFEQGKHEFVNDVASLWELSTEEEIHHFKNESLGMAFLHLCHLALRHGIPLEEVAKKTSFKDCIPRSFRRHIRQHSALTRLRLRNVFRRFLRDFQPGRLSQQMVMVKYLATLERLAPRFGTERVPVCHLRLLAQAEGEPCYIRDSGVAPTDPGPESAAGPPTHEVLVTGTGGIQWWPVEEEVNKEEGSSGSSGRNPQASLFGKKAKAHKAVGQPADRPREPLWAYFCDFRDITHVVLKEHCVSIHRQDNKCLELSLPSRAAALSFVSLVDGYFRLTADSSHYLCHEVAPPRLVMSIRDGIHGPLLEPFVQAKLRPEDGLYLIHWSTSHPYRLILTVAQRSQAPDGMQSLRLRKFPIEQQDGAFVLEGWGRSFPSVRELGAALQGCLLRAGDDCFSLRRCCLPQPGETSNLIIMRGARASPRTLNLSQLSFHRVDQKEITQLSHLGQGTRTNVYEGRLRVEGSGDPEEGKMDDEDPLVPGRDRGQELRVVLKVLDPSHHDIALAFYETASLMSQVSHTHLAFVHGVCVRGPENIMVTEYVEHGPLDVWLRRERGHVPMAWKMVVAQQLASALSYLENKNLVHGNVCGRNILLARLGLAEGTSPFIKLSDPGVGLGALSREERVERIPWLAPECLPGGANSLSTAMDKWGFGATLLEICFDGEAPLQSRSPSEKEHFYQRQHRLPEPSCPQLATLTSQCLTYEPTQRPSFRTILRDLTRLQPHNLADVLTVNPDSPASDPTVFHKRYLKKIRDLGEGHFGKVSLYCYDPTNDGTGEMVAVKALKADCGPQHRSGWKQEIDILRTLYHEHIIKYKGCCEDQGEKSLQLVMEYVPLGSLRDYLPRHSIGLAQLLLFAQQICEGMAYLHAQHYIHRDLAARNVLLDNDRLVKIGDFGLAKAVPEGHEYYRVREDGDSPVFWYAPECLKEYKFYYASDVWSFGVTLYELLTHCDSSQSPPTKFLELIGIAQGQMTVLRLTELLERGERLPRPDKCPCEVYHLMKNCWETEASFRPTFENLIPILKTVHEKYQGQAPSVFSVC
# MCF7 [15] = assay: Inhibition of cell invasion in human MCF7 cells at incubated for 48 hrs by crystal violet staining based assay; type: functional; details: dose 0.5-2 µM
# MCF7 [16] = assay: Upregulation of E-cadherin expression in human MCF7 cells at 0.5 to 2 uM; type: functional, cell-based; details: dose 0.5-2 µM
# Mitochondrial membrane [17] = assay: Induction of mitochondrial membrane potential loss in human MCF7 cells assessed as reduction in JC-1 aggregates by measuring decrease in red fluorescence at 1 uM by flow cytometry analysis (reference value: 24.7%); type: cell membranes; set-up: scale not given: the % may be the effect or the level left
# Mitochondrial membrane [18] = assay: Induction of mitochondrial membrane potential loss in human MCF7 cells assessed as increase in JC-1 monomers by measuring increase in green fluorescence at 0.5 uM by flow cytometry analysis (reference value: 38.0%); type: cell membranes
# MCF7 [19] = assay: Induction of autophagy in human MCF7 cells assessed as upregulation of LC3B-II expression incubated for 48 hrs by Western blotting analysis; type: functional, cell-based; details: dose 0.5-2 µM
# MCF7 [20] = assay: Induction of autophagy in human MCF7 cells assessed as increase in MDC positive cells at 0.5 to 2 uM by MDC staining based microscopic analysis; type: functional, cell-based; details: dose 0.5-2 µM
# MCF7 [21] = assay: Induction of autophagy in human MCF7 cells assessed as increase in LC3B expression at 1 uM incubated for 48 hrs in presence of 3-methyladenine by Western blot analysis; type: functional, cell-based
# MCF7 [22] = assay: Induction of autophagy in human MCF7 cells assessed as increase in Beclin-1 level at 1 uM by Western blot analysis; type: functional, cell-based
# MCF7 [23] = assay: Inhibition of colony formation in human MCF7 cells at 1 uM incubated for 6 hrs in presence of chloroquine by crystal violet staining based analysis; type: functional, cell-based
# MCF7 [24] = assay: Upregulation of C-caspase3 protein expression in human MCF-7 cells at 1 uM incubated for 6 hrs in presence of chloroquine by Western blot analysis; type: functional, cell-based
# MCF7 [25] = assay: Upregulation of caspase3 protein expression in human MCF-7 cells at 1 uM incubated for 6 hrs in presence of chloroquine by Western blot analysis; type: functional, cell-based
# MCF7 [26] = assay: Induction of apoptosis in human MCF7 cells assessed as late apoptotic cells at 1 uM incubated for 48 hrs by Annexin V/FITC and PI staining based flow cytometry analysis (reference value: 3.65%); type: functional
# [27] = Toxicity in female BALB/c mouse assessed as change in body weight at 25 to 50 mg/kg, po qd measured after 18 days; type: organism-based; details: in vivo, 432 h, dose 25-50 mg/kg, time 18 day
# [28] = Toxicity in female BALB/c mouse assessed as effect on heart at 25 to 50 mg/kg, po qd measured after 18 days by H and E staining based analysis; type: organism-based; details: in vivo, 432 h, dose 25-50 mg/kg, time 18 day
# [29] = Toxicity in female BALB/c mouse assessed as effect on kidney at 25 to 50 mg/kg, po qd measured after 18 days by H and E staining based analysis; type: organism-based; details: in vivo, 432 h, dose 25-50 mg/kg, time 18 day
# [30] = Toxicity in female BALB/c mouse assessed as effect ALB level in serum at 25 to 50 mg/kg, po qd measured after 18 days by biochemical analysis; type: organism-based; details: in vivo, 432 h, dose 25-50 mg/kg, time 18 day
# 4T1 [31] = assay: Antitumor activity against mouse 4T1 cells implanted in female BALB/c mouse model assessed as reduction in c-Myc phosphorylation level at 50 mg/kg, po qd by immunohistochemical analysis; type: functional, organism-based
# 4T1 [32] = assay: Antitumor activity against mouse 4T1 cells implanted in female BALB/c mouse model assessed as reduction in tumor volume at 50 mg/kg, po qd measured for 18 days in presence of chloroquine; type: functional, organism-based; details: time 18.0 day
# 4T1 [33] = assay: Antitumor activity against mouse 4T1 cells implanted in female BALB/c mouse model assessed as increase in tumor cell necrosis at 50 mg/kg, po qd measured for 18 days in presence of chloroquine; type: functional, organism-based; details: time 18.0 day
# [34] = Toxicity in female BALB/c mouse assessed as effect on heart at 50 mg/kg, po qd measured after 18 days in presence of chloroquine by H and E staining based analysis; type: organism-based; details: in vivo, 432 h, time 18 day
# [35] = Toxicity in female BALB/c mouse assessed as effect on liver at 50 mg/kg, po qd measured after 18 days in presence of chloroquine by H and E staining based analysis; type: organism-based; details: in vivo, 432 h, time 18 day
# 4T1-Luc [36] = assay: Anti-metastatic activity in mouse 4T1-Luc cells assessed as reduction in destroyed alveolar wall at 25 to 50 mg/kg, po measured after 20 days by H and E staining based analysis; type: functional, organism-based; details: dose 25-50 mg/kg, time 20.0 day
# 4T1-Luc [37] = assay: Anti-metastatic activity in mouse 4T1-Luc cells assessed as reduction in disruption of cell structure at 25 to 50 mg/kg, po measured after 20 days by H and E staining based analysis; type: functional, organism-based; details: dose 25-50 mg/kg, time 20.0 day
smiles,measurement,setting,value
O=C(Nc1cc(C(F)(F)F)cc(C(F)(F)F)c1)N[C@@H](Cc1ccccc1)Cn1c[n+](Cc2ccc3ccccc3c2)c2ccccc21.[Br-],IC50,4T1 [1],2760 nM
same,Cmax,[2],534 ng/mL
same,AUC(0-t),[3],1040 ng·h/mL
same,Cmax,[4],770 ng/mL
same,AUC(0-inf),[5],4080 ng·h/mL
same,bioavailability,[6],37.1%
same,Activity,[7],Active
same,Activity,[8],Active
same,Activity,[9],Active
same,Activity,MCF7 [10],Active
same,Activity,MCF7 [11],inactive
same,Activity,MCF7 [12],inactive
same,Activity,MCF7 [13],Not active; Compound Showed Less Sensitivity Response
same,inhibition,[14],14%
same,inhibition,MCF7 [15],Dose-dependent-effect
same,Activity,MCF7 [16],Active
same,Activity,Mitochondrial membrane [17],9.86%
same,Activity,Mitochondrial membrane [18],46.6%
same,Activity,MCF7 [19],Dose-dependent-effect
same,Activity,MCF7 [20],Active
same,Activity,MCF7 [21],inactive
same,Activity,MCF7 [22],Active
same,inhibition,MCF7 [23],Active
same,Activity,MCF7 [24],Active
same,Activity,MCF7 [25],Active
same,Activity,MCF7 [26],13.7%
same,Activity,[27],Non-toxic
same,Activity,[28],Non-toxic
same,Activity,[29],Non-toxic
same,Activity,[30],Non-toxic
same,Activity,4T1 [31],Active
same,Activity,4T1 [32],Active
same,Activity,4T1 [33],Active
same,Activity,[34],Non-toxic
same,Activity,[35],Non-toxic
same,Activity,4T1-Luc [36],Active
same,Activity,4T1-Luc [37],Active
